Measured values as given in patent publication US11945875B2, “Motile sperm domain containing protein 2 and cancer” (ImmuneWalk Therapeutics, Inc., priority 2015, dated 2024).
Entries after “also recorded” stand apart in the source; their conditions may differ.

Columns and labels:
human monocytes = settings: cited from earlier work
MOSPD2 [1] = target: T1, MOSPD2 (Homo sapiens, UniProt Q8NHP6); assay: Binding to HEK293 cells transfected with HA-tagged human MOSPD2; parameters: expressed in transfected cells; host or cells: HEK293; settings: ovalbumin labeled compound
T1 sequence (Q8NHP6 1-518): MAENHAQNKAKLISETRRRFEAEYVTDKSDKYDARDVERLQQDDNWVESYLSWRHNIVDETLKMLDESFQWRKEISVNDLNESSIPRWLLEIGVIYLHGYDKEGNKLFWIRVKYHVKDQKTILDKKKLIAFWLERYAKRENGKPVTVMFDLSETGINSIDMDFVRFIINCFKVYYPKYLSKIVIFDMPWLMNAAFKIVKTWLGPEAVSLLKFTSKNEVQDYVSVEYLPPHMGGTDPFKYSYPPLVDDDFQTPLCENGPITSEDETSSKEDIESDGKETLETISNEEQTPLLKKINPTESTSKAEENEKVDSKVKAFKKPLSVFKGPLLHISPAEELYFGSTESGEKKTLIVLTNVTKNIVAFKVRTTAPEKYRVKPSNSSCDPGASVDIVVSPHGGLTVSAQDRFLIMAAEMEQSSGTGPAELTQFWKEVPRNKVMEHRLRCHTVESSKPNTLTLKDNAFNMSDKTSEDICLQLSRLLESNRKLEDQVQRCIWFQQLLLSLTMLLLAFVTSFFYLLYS
Excerpt: VB-201 inhibits human monocyte chemotaxis in vitro and signaling pathways activated downstream of chemokine receptors.

MOSPD2 [2] = target: T1, MOSPD2; assay: Mass-Spectrometry differential display of proteins precipitated from human monocytes; format: binding; parameters: endogenous in cells; host or cells: human CD14 monocytes; settings: labeled compound
Excerpt: Using labeled VB-201 and VB-221, proteins from human monocytes were precipitated and differential display by Mass-Spectrometry, was studied.

MOSPD2 [3] = target: T1, MOSPD2; assay: Precipitation of proteins from human CD14 monocyte lysate with labelled VB-201 or VB-221, Western blot; format: binding; parameters: endogenous in cells; host or cells: human CD14 monocytes; settings: ovalbumin-biotin labelled compound (OB201/OB221)
Protocol: (§1) VB-201 and VB-221 were labeled with biotin as follows. VB-201, VB-221 and ovalbumin (OVA, Sigma, Israel) were dissolved in 0.1 M MES buffer (Thermo Scientific, Rockford, IL) and conjugated using EDC [1-ethyl-3-(dimethylaminopropyl) carbodiimide HCL] (Thermo Scientific) at a molar ratio of 100 (VB-201/VB-221):1 (OVA):240 (EDC) for 2-3 hr at room temperature. After which, samples were transferred to 10 kDa dialysis cassettes (Thermo Scientific) and dialyzed overnight against PBS. The ovalbumin bound VB-201 (OB201) and VB-221 (OB221) were then conjugated with amine-PEG2-biotin (in 0.1 M MES buffer) using EDC at a molar ratio of 1 (OB201/OB221):100 (amine-PEG2-biotin):700 (EDC). The reaction was allowed to proceed for 2-3 hours at room temperature after which samples were again transferred to a 10 kDa dialysis cassette and dialyzed overnight against PBS.
(§2) Cells were lysed using a 1% NP-40 lysis buffer containing 1:100 protease and phosphatase inhibitors, followed by 20 min incubation on ice and 15 min centrifugation at maximum speed. Samples were incubated overnight at 4° C. with solvent, OB201 or OB221 in a rotator. Streptavidin agarose beads (Sigma, Israel) were added for 2 hours. Protein elution was performed with lysis buffer without DTT for 10 min at room temperature. Sample loading, transfer and immuno-blotting were performed as described above. […]

TLR2 = target: T2, TLR2 (Homo sapiens, UniProt O60603); assay: as above; format: binding; settings: ovalbumin-biotin labelled compound (OB201/OB221)
T2 construct: endogenous in cells; host or cells: human CD14 monocytes
Protocol: as §1, §2

[4] = tested on: EGF induced phosphorylation of AKT; assay: EGF-induced phosphorylation of AKT in MDA-231 cells, Western blot; format: cell-based, human; settings: 20 min pre-incubation, EGF 200 ng/ml 10 min
Protocol: In vitro: To test the effect of VB-201 on epidermal growth factor (EGF)-induced phosphorylation, MDA-231 breast cancer cells (10^6) were starved for 3 hours in 0.5% FCS medium, followed by incubation with various concentrations of VB-201 (1 μg/ml, 5 μg/ml, and 10 μg/ml) or a solvent control for 20 minutes. The MDA-231 cells were then activated with EGF (200 ng/ml) for 10 min. Phosphorylation of AKT was then analyzed by Western Blot. HSP90 was used for a loading control.

T2 sequence (O60603 21-784): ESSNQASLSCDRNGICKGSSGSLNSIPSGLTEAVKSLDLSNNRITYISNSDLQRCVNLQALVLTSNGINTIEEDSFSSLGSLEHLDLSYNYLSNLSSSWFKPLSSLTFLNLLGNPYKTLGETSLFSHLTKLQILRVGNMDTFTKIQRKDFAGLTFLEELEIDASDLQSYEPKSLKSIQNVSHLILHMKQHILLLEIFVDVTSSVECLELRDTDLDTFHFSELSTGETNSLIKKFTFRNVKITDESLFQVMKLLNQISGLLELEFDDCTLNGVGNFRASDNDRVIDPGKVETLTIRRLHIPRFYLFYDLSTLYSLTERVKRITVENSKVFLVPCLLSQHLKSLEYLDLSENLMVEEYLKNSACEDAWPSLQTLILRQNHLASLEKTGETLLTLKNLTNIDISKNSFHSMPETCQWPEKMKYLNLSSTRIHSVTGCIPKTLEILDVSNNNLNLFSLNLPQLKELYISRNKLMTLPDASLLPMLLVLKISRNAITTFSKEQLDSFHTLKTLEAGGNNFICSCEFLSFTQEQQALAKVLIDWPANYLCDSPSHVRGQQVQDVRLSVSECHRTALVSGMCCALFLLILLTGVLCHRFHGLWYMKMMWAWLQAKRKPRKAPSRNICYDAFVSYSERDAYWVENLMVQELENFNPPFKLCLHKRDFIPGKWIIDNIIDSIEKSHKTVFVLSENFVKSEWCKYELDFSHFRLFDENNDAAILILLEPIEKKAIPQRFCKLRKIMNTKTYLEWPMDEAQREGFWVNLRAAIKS

Row | SMILES | inhibition of monocyte chemotaxis / chemokine-induced signaling and migration (human monocytes) | binding to HA-positive HEK293 cells expressing human MOSPD2 (MOSPD2 [1]) | binding of MOSPD2 by Mass-Spectrometry (MOSPD2 [2]) | binding / precipitation of MOSPD2 (MOSPD2 [3]) | precipitation of TLR2 (TLR2) | inhibition of EGF induced phosphorylation of AKT ([4]; 5 μg/ml) | inhibition of EGF induced phosphorylation of AKT ([4]; 10 μg/ml)
1 | CCCCCCCCCCCCCCCCOC[C@H](COP(=O)([O-])OCC[N+](C)(C)C)OCCCCC(=O)O [VB-201, 1-hexadecyl-2-(4′-carboxy)butyl-glycero-3-phosphocholine] | inhibits migration | strong binding | strong binding | binds and precipitates MOSPD2; also recorded: markedly more intense than VB-221; also recorded: binds to MOSPD2 | comparable intensity | significant inhibition | nearly completely inhibits
2 | CCCCCCCCCCC(CCCCCCCC)COCC(COP(=O)([O-])OCC[N+](C)(C)C)OCCCCC(=O)O (stereo not drawn) [VB-221, 1-(2′-octyl)dodecyl-2-(4′-carboxy)butyl-glycero-3-phosphocholine] | does not inhibit; also recorded: did not inhibit |  |  |  | comparable intensity |  | 
